Experimental data taken from US4623662A, “Antiatherosclerotic ureas and thioureas” (American Cyanamid Company, priority 1985, dated 1986).

Target: T1, fatty acyl CoA: cholesterol acyl transferase (ACAT) (Rattus norvegicus, UniProt O70536)
T1 construct: The supernatant, containing the microsomal fraction, served as the source of the cholesterol-esterifying enzyme; from tissue; host or cells: rat adrenals, supernatant of 1,000 x g centrifugation containing the microsomal fraction
T1 sequence (O70536 1-545): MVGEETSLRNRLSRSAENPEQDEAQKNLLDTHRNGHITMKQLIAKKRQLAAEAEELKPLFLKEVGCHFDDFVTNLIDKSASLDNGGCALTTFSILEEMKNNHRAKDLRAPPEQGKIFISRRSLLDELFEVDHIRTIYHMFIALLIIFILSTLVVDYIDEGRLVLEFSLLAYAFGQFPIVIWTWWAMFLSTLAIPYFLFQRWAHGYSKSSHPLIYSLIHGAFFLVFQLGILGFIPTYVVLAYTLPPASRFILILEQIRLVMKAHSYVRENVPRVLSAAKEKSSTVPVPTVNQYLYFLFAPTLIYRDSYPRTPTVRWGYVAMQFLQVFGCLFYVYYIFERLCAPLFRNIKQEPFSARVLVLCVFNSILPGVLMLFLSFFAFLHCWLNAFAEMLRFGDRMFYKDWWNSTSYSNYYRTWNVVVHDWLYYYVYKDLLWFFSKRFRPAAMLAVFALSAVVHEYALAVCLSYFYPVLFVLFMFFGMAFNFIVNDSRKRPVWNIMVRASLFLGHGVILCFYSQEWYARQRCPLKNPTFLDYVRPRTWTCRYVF
Test: Inhibition of fatty acyl CoA:cholesterol acyl transferase (ACAT), rat adrenal enzyme
Assay type: biochemical
Conditions: not given
Description: The compounds of the present invention were assayed for two types of biological activity related to their potential use as antiatherosclerotic agents. Compounds were tested in vitro for the ability to inhibit the enzyme fatty acyl CoA: cholesterol acyl transferase (ACAT) and in vivo for serum hypolipidemic activity as meausred by the ability to inhibit lipid absorption in rats.
The compounds were tested for their ability to inhibit ACAT according to the following procedure: rat adrenals were homogenized in 0.2M monobasic potassium phosphate buffer, pH 7.4, and centrifuged at 1,000 times gravity for 15 minutes at 5° C. The supernatant, containing the microsomal fraction, served as the source of the cholesterol-esterifying enzyme, fatty acyl CoA:cholesterol acyl transferase (ACAT). A mixture comprising 50 parts of adrenal supernatant, 10 parts of bovine serum albumin (50 mg/ml), 3 parts of test compound (final concentration 5.2 μg/ml), and 500 parts of buffer was preincubated at 37° C. for 10 minutes. After treatment with 20 parts of oleoyl CoA (^14 C-0.4 μCi), the mixture was incubated at 37° C. for 10 minutes. A control mixture, omitting the test compound, was prepared and treated in the same manner. The lipids from the incubation mixture was extracted into an organic solvent and separated by thin-layer chromatography. The cholesteryl ester fraction was counted in a scintillation counter. This procedure is a modification of that described by Hashimoto, et al., Life Scie., 12 (Part II), 1-12 (1973).
Compounds which produced statistically significant inhibition of the ACAT enzyme are considered to be active.
In addition to the above described test and the results given in terms of percent inhibition, various compounds of this invention were tested by the same procedure at several concentrations. The results of this test are given in Table II in terms of IC50 (μM), that concentration which produced 50% inhibition of the ACAT enzyme.

`CCCCCCCN(Cc1ccc(CCCC)cc1)C(=O)Nc1cccc(C(F)(F)F)c1` [1-(n-Heptyl)-1-[4-(n-butyl)benzyl]-3-(3-trifluoromethylphenyl)urea] showed an inhibition at 5.2 µg/mL of 90%.

Same assay, conditions: rat adrenal ACAT; final concentration 5.2 μg/ml; read-out: % Inhibition

Compared with `CCCCCCCN(Cc1ccc(CCCC)cc1)C(=O)Nc1cccc(C(F)(F)F)c1` [1-(n-Heptyl)-1-(4-n-butylbenzyl)-3-(3-trifluoromethylphenyl)urea], `CCCCCCCN(Cc1ccc(CCCC)cc1)C(=O)Nc1ccc(C(=O)O)cc1` [1-(n-Heptyl)-1-(4-n-butylbenzyl)-3-(4-carboxyphenyl)urea] is lower in inhibition at 5.2 µg/mL: 85% for the first, 61.8% for the second.

Going from `CCCCCCCCCCCCCCN(Cc1ccccc1)C(=O)Nc1ccc(C)cc1C` [1-(n-Tetradecyl)-1-benzyl-3-(2,4-dimethylphenyl)urea] to `CCCCN(Cc1ccccc1)C(=O)Nc1cc(C)ccc1C` [1-Benzyl-1-( -n-butyl)-3-(2,5-dimethylphenyl)urea], the inhibition at 5.2 µg/mL rises from 80.3% to 92.7%.

Going from `CCCCc1ccc(CN(Cc2ccccc2)C(=O)Nc2ccc(Oc3ccccc3)cc2)cc1` [1-Benzyl-1-(4-n-butylbenzyl)-3-(4-phenoxyphenyl)urea] to `CCCCN(Cc1ccccc1)C(=O)Nc1ccc(C)cc1` [1-Benzyl-1-( -n-butyl)-3-(4-methylphenyl)urea], the inhibition at 5.2 µg/mL falls from 93.5% to 78%.

Compared with `CCCCN(Cc1ccccc1)C(=O)Nc1cccc(C)c1C` [1-Benzyl-1-( -n-butyl)-3-(2,3-dimethylphenyl)urea], `CCCCN(Cc1ccccc1)C(=O)Nc1ccccc1C` [1-Benzyl-1-( -n-butyl)-3-(2-methylphenyl)urea] is lower in inhibition at 5.2 µg/mL: 85.8% for the first, 78.8% for the second.

Compared with `CCCCN(Cc1ccccc1)C(=O)Nc1c(C)cc(C)cc1C` [1-Benzyl-1-( -n-butyl)-3-(2,4,6-trimethylphenyl)urea], `CCCCN(Cc1ccccc1)C(=O)Nc1ccc(C)c(C)c1` [1-Benzyl-1-( -n-butyl)-3-(3,4-dimethylphenyl)urea] is higher in inhibition at 5.2 µg/mL: 75.8% for the first, 87.1% for the second.

Compared with `CCCCN(Cc1ccccc1)C(=O)Nc1ccc(Cl)c(Cl)c1` [1-Benzyl-1-( -n-butyl)-3-(3,4-dichlorophenyl)urea], `CCCCN(Cc1ccccc1)C(=O)Nc1cccc(Cl)c1` [1-Benzyl-1-(n-butyl)-3-(3-chlorophenyl)urea] is lower in inhibition at 5.2 µg/mL: 95.9% for the first, 88.6% for the second.

Going from `CCCCN(Cc1ccccc1)C(=O)Nc1cc(Cl)cc(Cl)c1` [1-Benzyl-1-( -n-butyl)-3-(3,5-dichlorophenyl)urea] to `CCCCN(Cc1ccccc1)C(=O)Nc1cc(Cl)ccc1OC` [1-Benzyl-1-( -n-butyl)-3-(5-chloro-2-methoxyphenyl)urea], the inhibition at 5.2 µg/mL falls from 90.7% to 80.6%.

First: CCCCN(Cc1ccccc1)C(=O)Nc1cccc(Cl)c1OC [1-Benzyl-1-( -n-butyl)-3-(3-chloro-2-methoxyphenyl)urea]
Second: CCCCN(Cc1ccccc1)C(=O)Nc1cccc(C)c1 [1-Benzyl-1-( -n-butyl)-3-(3-methylphenyl)urea]
The inhibition at 5.2 µg/mL of the first is lower: 84.5% for the first, 92.3% for the second.

First: CCCCN(Cc1ccccc1)C(=O)Nc1cccc(C(F)(F)F)c1 [1-Benzyl-1-( -n-butyl)-3-(3-trifluoromethylphenyl)urea]
Second: CCCCN(Cc1ccccc1)C(=S)Nc1ccccc1 [1-Benzyl-1-(n-butyl)-3-phenyl thiourea]
The inhibition at 5.2 µg/mL of the first is higher: 85.7% for the first, 82.4% for the second.

Going from `COc1cccc(C(Cc2ccccc2)N(Cc2ccccc2)C(=O)Nc2ccc(C)cc2C)c1` (stereo not shown) [1-Benzyl-1-[1-(3-methoxyphenyl)-2-phenylethyl]-3-(2,4-dimethylphenyl)urea] to `COc1cccc(C(Cc2ccccc2)N(Cc2ccccc2)C(=O)Nc2cccc(C(F)(F)F)c2)c1` (stereo not shown) [1-Benzyl-1-[1-(3-methoxyphenyl)-2-phenylethyl]-3-(3-trifluoromethylphenyl)urea], the inhibition at 5.2 µg/mL rises from 86.4% to 88.1%.

Work on `Cc1ccc(NC(=O)N(Cc2ccccc2)C(Cc2ccccc2)c2ccc(OCc3ccccc3)cc2)c(C)c1` (stereo not shown) [1-Benzyl-1-[1-(4-benzyloxyphenyl)-2-phenylethyl]-3-(2,4-dimethylphenyl)urea] yielded an inhibition at 5.2 µg/mL of 93%.
